{"source": "BindingDB's records for doi:10.1021/jm00045a011", "about": "(Eisai, 1994)", "target": "Arachidonate 5-lipoxygenase (Homo sapiens)", "assay": "Tested for inhibitory activity against leukotriene B4 (LTB4) production in human neutrophils", "data": [{"smiles": "Cc1c(O)c(C)c2sc(NCc3ccc(S(N)(=O)=O)cc3)nc2c1C", "note": "[4-[(6-Hydroxy-4,5,7-trimethyl-benzothiazol-2-ylamino)-methyl]-benzenesulfonamide]", "values": [{"measurement": "IC50", "value": 30, "unit": "nM"}]}]}
